Measurements from ChEMBL document CHEMBL3045598, “Utilization of nicotinonitrile-2-thiol in the synthesis of new thiepino[2,3-b]pyridine derivative as an in vitro novel antitumor potent” (Med Chem Res, 2013).
Activity calls are given as the source filed them. The calls are words filed in the database; no cut-off is given here.

Each compound was assayed on Ehrlich (assay: Cytotoxicity against Mus musculus (mouse) EAC cells assessed as decrease in cell viability at 50 ug/ml by trypan blue exclusion assay).
Type: functional, cell-based
With `CCOC(=O)CCCSc1nc(C)cc(C)c1C#N` the Activity was “Active”. With `CCOC(=O)C1CCSc2nc(C)cc(C)c2C1=O` (stereo not drawn) the Activity was “Active”. In the case of `Cc1cc2n(c(=S)c1C#N)CCCC(=O)C2`, the Activity is reported as “Active”.
